For assay [1], the target named is T1, AKT1-NL (Homo sapiens, UniProt P31749).
T1 construct: full-length versions of AKT1, AKT2, and AKT3, were separately subcloned into pNLF1-N or pNLF1-C vectors; expressed in transfected cells; host or cells: HEK293T
Put plainly: Bioluminescent imaging of AKT1-NL localization in HEK293T cells. The assay is classed as cell-based. The following applies: 2 h treatment, compared to DMSO. The protocol:
(§1) We also performed bioluminescent imaging on AKT1-NL, AKT2-NL, and AKT3-NL transfected into HEK293T cells treated individually with all AKT inhibitors for 2 h (Figure S1F). […] After incubation, 2 μL of NanoGlo substrate was added to each well and imaged using the GloMax Galaxy Bioluminescence Imager utilizing a 40× objective (Nikon CFI Plan Fluor- Material Number MRH01401) and exposure times ranging from 32 to 100 s. […] Images were processed in Fiji.

The target in a further assay is T2, AKT2-NL (Homo sapiens, UniProt P31751).
T2 construct: full-length versions of AKT1, AKT2, and AKT3, were separately subcloned into pNLF1-N or pNLF1-C vectors; expressed in transfected cells; host or cells: HEK293T
T2 sequence (P31751 whole entry): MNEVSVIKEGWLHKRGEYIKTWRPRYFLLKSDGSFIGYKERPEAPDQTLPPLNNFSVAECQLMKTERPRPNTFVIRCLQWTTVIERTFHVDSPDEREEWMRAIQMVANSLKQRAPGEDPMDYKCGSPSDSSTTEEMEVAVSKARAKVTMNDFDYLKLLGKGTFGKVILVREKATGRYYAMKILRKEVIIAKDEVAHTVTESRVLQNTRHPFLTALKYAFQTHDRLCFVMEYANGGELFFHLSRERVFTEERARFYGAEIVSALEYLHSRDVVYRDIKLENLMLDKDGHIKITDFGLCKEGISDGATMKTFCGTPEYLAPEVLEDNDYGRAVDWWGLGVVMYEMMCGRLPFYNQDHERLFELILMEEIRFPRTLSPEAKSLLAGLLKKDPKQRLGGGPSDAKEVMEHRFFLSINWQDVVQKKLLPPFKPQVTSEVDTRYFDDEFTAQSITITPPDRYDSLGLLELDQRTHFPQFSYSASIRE
The assay is described as follows: Bioluminescent imaging of AKT2-NL localization in HEK293T cells. It counts as cell-based. The following applies: 2 h treatment, compared to DMSO. The protocol: as §1

The target of assay [2] is T3, AKT3-NL (Homo sapiens, UniProt Q9Y243). Put plainly: Bioluminescent imaging of AKT3-NL localization in HEK293T cells. It counts as cell-based. The arrangement: full-length versions of AKT1, AKT2, and AKT3, were separately subcloned into pNLF1-N or pNLF1-C vectors; expressed in transfected cells; host or cells: HEK293T. The conditions noted are these: 2 h treatment, compared to DMSO. The protocol: as §1
T3 sequence (Q9Y243 whole entry): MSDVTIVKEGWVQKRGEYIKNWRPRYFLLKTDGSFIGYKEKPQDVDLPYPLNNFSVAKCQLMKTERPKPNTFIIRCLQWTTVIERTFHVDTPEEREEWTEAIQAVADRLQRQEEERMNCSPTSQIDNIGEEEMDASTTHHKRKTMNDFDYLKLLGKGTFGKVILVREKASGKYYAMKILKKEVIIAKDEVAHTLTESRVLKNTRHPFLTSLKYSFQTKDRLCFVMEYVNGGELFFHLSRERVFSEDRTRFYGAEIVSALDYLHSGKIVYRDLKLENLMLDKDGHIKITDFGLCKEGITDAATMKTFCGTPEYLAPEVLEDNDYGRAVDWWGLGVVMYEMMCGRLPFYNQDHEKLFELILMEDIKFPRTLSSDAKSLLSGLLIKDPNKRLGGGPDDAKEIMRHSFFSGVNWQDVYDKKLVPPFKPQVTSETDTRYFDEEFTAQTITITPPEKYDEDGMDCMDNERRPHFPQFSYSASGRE

The target of assay [3] is T1, AKT1-NL. The assay is described as follows: Live-cell steady-state NanoBRET target engagement assay, AKT1-NL. It counts as binding. In general terms: Bioluminescence resonance energy transfer reports proximity on the nanometre scale.
Description: (§2) In this live-cell assay, bioluminescence resonance energy transfer (BRET) produced by the interaction of a transfected NanoLuciferase (NL)-tagged protein of interest and a protein-bound Bodipy-containing tracer molecule is dose-dependently competed out with a drug.
(§3) This solution was aliquoted into white adherent 96-well plates at a volume of 100 μL/well and incubated for 24 h at 37 °C and 5% CO2. […] Following all inhibitor and tracer additions, cells were incubated at 37 °C and 5% CO2 for 2 h. 50 μL of a 3× solution of Opti-MEM containing a NanoGlo substrate and NanoLuciferase inhibitor provided in the NanoBRET kit were added to each well.
(§4) Calculated K i values were calculated using the following formula Ki=IC50,tracer/(1+[tracer]/EC50,tracer)
A further assay deals with T4, Myr-AKT1-NL (Homo sapiens, UniProt P31749).
T4 construct: host or cells: HEK293T
T4 sequence (P31749 whole entry): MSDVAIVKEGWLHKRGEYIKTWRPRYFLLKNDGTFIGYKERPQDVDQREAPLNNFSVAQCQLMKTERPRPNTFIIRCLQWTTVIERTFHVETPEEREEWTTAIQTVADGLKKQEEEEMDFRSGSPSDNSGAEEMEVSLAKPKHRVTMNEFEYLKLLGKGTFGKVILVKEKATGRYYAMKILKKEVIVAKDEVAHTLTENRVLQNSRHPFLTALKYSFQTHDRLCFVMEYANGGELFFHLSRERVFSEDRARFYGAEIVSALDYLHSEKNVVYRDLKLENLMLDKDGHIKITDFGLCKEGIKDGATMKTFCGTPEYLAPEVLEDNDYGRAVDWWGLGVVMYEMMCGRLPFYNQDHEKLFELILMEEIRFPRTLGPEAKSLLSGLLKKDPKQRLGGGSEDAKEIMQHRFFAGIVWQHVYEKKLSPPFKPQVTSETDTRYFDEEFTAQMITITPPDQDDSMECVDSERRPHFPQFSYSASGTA
The assay is described as follows: NanoBRET target engagement assay, Myr-AKT1-NL. It counts as binding. The text has this: It was puzzling to understand why ATP-competitive inhibitors bound more tightly to some pathological mutants. […] To achieve an active AKT population characterized by increased phosphorylation and membrane association, we created N-terminally myristoylated AKT1–3-NL constructs (Figure A). AKT myristoylation is commonly used to keep AKT membrane-associated and available for phosphorylation by PDK1 and mTORC2. , We decided to use myristoylation instead of treatment with a PI3K-AKT stimulating hormone such as IGF1 because of transient time-dependent effects on phosphorylation that complicates the reproducibility of our NanoBRET assay. , Bioluminescent imaging of Myr-AKT1-NL, Myr-AKT2-NL, and Myr-AKT3-NL constructs confirmed that each isoform was associated at the cell membrane (Figure S4A).
Statistics were performed in Origin 2023.

The test system of the next assay is MDA-MB-231 cells. Put plainly: Resazurin cell viability assay, MDA-MB-231. It counts as cell-based. The conditions noted are these: Homo sapiens, MDA-MB-231, 120 h, 5 days, ± SEM, n = 3. For orientation: Alamar Blue is a resazurin reagent that responds to reducing activity.
A further assay has as its system MDA-MB-468 cells. Put plainly: Resazurin cell viability assay, MDA-MB-468. The assay is classed as cell-based. The following applies: Homo sapiens, MDA-MB-468, 120 h, 5 days, ± SEM, n = 3.
Assay [4] deals with T3, AKT3-NL. Put plainly: Live-cell steady-state NanoBRET target engagement assay, AKT3-NL.
Description: as §2, §3, §4
The target of a further assay is T5, PDK1-NL (Homo sapiens, UniProt O15530).
T5 sequence (O15530 1-556): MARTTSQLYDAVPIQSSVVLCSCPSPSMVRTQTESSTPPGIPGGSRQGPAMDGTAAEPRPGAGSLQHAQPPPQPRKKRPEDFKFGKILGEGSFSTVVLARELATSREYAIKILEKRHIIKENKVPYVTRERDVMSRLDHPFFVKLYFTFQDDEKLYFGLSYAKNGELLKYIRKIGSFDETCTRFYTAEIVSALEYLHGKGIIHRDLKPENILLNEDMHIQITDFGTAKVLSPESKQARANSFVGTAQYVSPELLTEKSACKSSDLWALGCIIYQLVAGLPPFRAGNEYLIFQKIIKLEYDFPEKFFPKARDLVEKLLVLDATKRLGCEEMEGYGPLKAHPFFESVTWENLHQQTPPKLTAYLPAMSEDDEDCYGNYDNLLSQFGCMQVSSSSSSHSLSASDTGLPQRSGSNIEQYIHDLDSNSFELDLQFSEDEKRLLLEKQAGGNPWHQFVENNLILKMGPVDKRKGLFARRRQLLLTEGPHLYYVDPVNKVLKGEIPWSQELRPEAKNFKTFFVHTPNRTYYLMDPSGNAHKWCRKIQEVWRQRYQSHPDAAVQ
The assay is described as follows: NanoBRET competition assay using PDK1-NL. The assay is classed as binding. The following applies: ± SEM, n = 3 biological replicates; read-out: PDK1-NL calculated Ki.

Another assay deals with T6, AKT3-E17K-NL (Homo sapiens, UniProt Q9Y243, E17K).
T6 construct: full-length versions of AKT1, AKT2, and AKT3, were separately subcloned into pNLF1-N or pNLF1-C vectors; expressed in transfected cells
T6 sequence (Q9Y243 whole entry E17K): as the sequence (Q9Y243 whole entry) above, with E17K counted along it
The assay is described as follows: NanoBRET competition assay, AKT3-E17K-NL. It counts as binding.

Setting [5] is: vs absence of BX-795, 0.2% DMSO.

By Ki is commonly meant a dissociation constant, usually derived from enzyme kinetics or from competition with a known ligand. What is called IC50 is the concentration needed to halve the response being measured. The low end stands for greater potency, the high end for weaker potency.

T1 sequence (P31749 whole entry): as the sequence (P31749 whole entry) above
Description for AKT3-E17K-NL: We next quantified the binding of ATP-competitive and allosteric inhibitors to these pathogenic mutants.
For coexpression experiments with Myr-AKT1-NL and PDK1, a DNA ratio of 9:0.5:0.5, μg/mL carrier DNA/Myr-AKT1-NL: PDK1 was used. This solution was aliquoted into white adherent 96-well plates at a volume of 100 μL/well and incubated for 24 h at 37 °C and 5% CO2. […] Following all inhibitor and tracer additions, cells were incubated at 37 °C and 5% CO2 for 2 h. 50 μL of a 3× solution of Opti-MEM containing a NanoGlo substrate and NanoLuciferase inhibitor provided in the NanoBRET kit were added to each well.
as §4
Description for PDK1-NL: as §3, §4

For the compound `O=c1[nH]c2ccccc2n1C1CCN(Cc2ccc(-c3nc4cc5[nH]cnc5cc4nc3-c3ccccc3)cc2)CC1` [inhibitor VIII], the AKT1-NL localization change entry at AKT1-NL [1] was “did not induce AKT localization changes”. For the same compound, at AKT2-NL, the AKT2-NL localization change result is “did not induce AKT localization changes”. In addition, the AKT3-NL localization change result at AKT3-NL [2] was “did not induce AKT localization changes”.

Take `Cc1n[nH]c2ccc(-c3cncc(OCC(N)Cc4c[nH]c5ccccc45)c3)cc12` (stereo not shown) [A-443654]: the values for the Ki on AKT1-NL [3] and at AKT3-NL [4] were 32.7 ± 14.1 nM and 16.6 ± 5.5 nM, respectively. Besides, the “Binding to AKT1-NL in the presence of 1 μM BX-795” value at AKT1-NL [3] (setting [5]) is “unaffected”. At Myr-AKT1-NL (setting [5]), the “Binding to Myr-AKT1-NL in the presence of 1 μM BX-795” value is “bound more weakly”. Also, the concentration for half-maximal inhibition (IC50) with MDA-MB-231 cells came out at 330 ± 10 nM; in the assay with MDA-MB-468 cells, 20 ± 1 nM. Also, the AKT1-NL localization change result at AKT1-NL [1] is “induced movement of all isoforms to the cell membrane and nucleus”. Besides, at AKT3-NL [2], the AKT3-NL localization change entry is “induced movement of all isoforms to the cell membrane and nucleus”.

With `O=C(NCCCNc1nc(Nc2cccc(NC(=O)N3CCCC3)c2)ncc1I)c1cccs1` [BX-795], the “Concentration at which some binding to AKT1-NL was observed” value at AKT1-NL [3] (dose-response curve) was “higher than 1 μM”. The “Concentration at which some binding to Myr-AKT1-NL was observed” value on Myr-AKT1-NL (dose-response curve) was “higher than 1 μM”. The Ki at PDK1-NL is 5.85 ± 0.42 nM.

On to `NC1(c2ccc(-c3nc4ccn5c(=O)[nH]nc5c4cc3-c3ccccc3)cc2)CCC1` [MK-2206], for which the “Binding to AKT3-E17K-NL” value at AKT3-E17K-NL is on record as “did not bind”. Moreover, the AKT1-NL localization change entry on AKT1-NL [1] is given as “did not induce AKT localization changes”. Also, the AKT2-NL localization change result on AKT2-NL was “did not induce AKT localization changes”. For the same compound, at AKT3-NL [2], the AKT3-NL localization change entry is reported as “did not induce AKT localization changes”.

For the compound `CC(C)NC[C@@H](C(=O)N1CCN(c2ncnc3c2[C@H](C)C[C@H]3O)CC1)c1ccc(Cl)cc1` [ipatasertib], on AKT1-NL [1], the AKT1-NL localization change result was “induced the movement of some AKT to the cell membrane”.

The values above are taken from article PMC12281477, “Live-Cell NanoBRET Assay to Measure AKT Inhibitor Binding to Conformational States of AKT” (ACS Chemical Biology, 2025).
